In experiment [1] the test system is OPM-2 human multiple myeloma cell line. The experiment is described as follows: Cell Viability Assay (OPM-2 10 FBS). The format is cell-based. The note with it: OPM-2 cells, CellTiter-Glo, read-out: OPM-2 10% FBS IC50 IP. As for the experimental part: Cell Viability Assay (OPM-2 10 FBS)
The human multiple myeloma cell line, OPM-2, was cultured in complete growth medium containing RPMI 1640 and 10% fetal bovine serum (FBS). Cells were seeded into 384-well plates at 3000 cells/well density in complete growth medium containing 10% FBS, and incubated for 16 h with serially diluted test compounds in a 37° C. incubator with 5% CO2. Cell viability was tested using CellTiter-Glo® assay (Promega, Madison, Wis.) according to the manufacturer recommendations. Luminescence was determined using an EnVision® Multilabel plate reader 25 min after the addition of detection reagent. IC50 values were then calculated with Xlfit using a logistical 4-parameter fit model in GraphPad Prism (GraphPad Software, San Diego, Calif.) or in Genedata Screener® (Genedata, Basel, Switzerland).
On the technique in general: ATP-based viability assays read luminescence as a measure of living cells.

In experiment [2] the target is Mcl-1/Bim interaction (recombinant human Mcl-1 residues 171-327) (Homo sapiens (Human), UniProt Q07820). Kind of experiment: Cell Free Mcl-1:Bim Affinity Assay (Mcl-1 HTRF). The format is binding. The settings on record: TR-FRET, 0.1 nM Mcl-1(171-327), 0.05 nM biotin-Bim(51-76). On the procedure: Cell Free Mcl-1:Bim Affinity Assay (Mcl-1 HTRF)
Mcl-1/Bim interaction (recombinant human Mcl-1 residues 171-327), sequence (Q07820 171-327): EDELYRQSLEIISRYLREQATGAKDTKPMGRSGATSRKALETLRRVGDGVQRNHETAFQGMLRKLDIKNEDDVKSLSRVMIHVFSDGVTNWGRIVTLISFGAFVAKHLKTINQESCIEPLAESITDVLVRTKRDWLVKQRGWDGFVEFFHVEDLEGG
The inhibition of the Mcl-1/Bim interaction was measured using a time-resolved fluorescence resonance energy transfer (TR-FRET) assay. The recombinant human Mcl-1 (C-terminally 6×His tagged Mcl-1 containing residues 171-327) was generated at Amgen Inc (Thousand Oaks, Calif.). A biotinylated peptide derived from human Bim (residues 51-76) was purchased from CPC Scientific (San Jose, Calif.). The TR-FRET assay was conducted in a 384-well white OptiPlate™ (PerkinElmer, Waltham, Mass.) in a total volume of 40 μL. The reaction mixture contained 0.1 nM Mcl-1(171-327), 0.05 nM biotin-Bim(51-76), 0.05 nM LANCES Eu-W1024 Anti-6×His (PerkinElmer), 0.072 nM Streptavidin-Xlent (Cisbio, Bedford, Mass.), and serially diluted test compounds in the binding buffer of 20 mM Hepes, pH 7.5, 150 mM NaCl, 0.016 mM Brij®35, and 1 mM dithiothreitol. Test compounds were pre-incubated with Mcl-1(171-327) and biotin-Bim (51-76) for 60 min before addition of the detection mixture (LANCE® Eu-W1024 Anti-6×His and Streptavidin-Xlent). The reaction plates were further incubated overnight and then were read on an Envision® multimode reader (PerkinElmer). Fluorescence signals were measured at 620 nm (40-nm bandwidth) and 665 nm (7.5-nm bandwidth) with a 60 μs delay after excitation at 320 nm (75-nm bandwidth). The signal ratio at 665/620 nm corresponded to the Mcl-1/Bim interaction and was used in all data analyses. The IC50 values of test compounds were determined from duplicate data by analyzing competition curves using a four-parameter sigmoidal model in GraphPad Prism (GraphPad Software, San Diego, Calif.) or in Genedata Screener® (Genedata, Basel, Switzerland).
In general terms: TR-FRET usually uses a lanthanide donor and a delayed reading to cut background.

Read-outs that look alike come from different tables or passages of the source.

Usually IC50 stands for the point on the concentration scale where inhibition reaches its midpoint.

Take `C[C@@H]1[C@@H](C)CCC[C@H](CN2CCN3CCN(C)C[C@@H]3C2)[C@@H]2CC[C@H]2CN2C[C@@]3(CCCc4cc(Cl)ccc43)COc3ccc(cc32)C(=O)NS1(=O)=O` (single isomer, unassigned) [Example 1]: the values for the IC50 in experiment [1] (16 h) and in experiment [2] were 117 nM and 0.225 nM, respectively.

In the case of `CC(=O)N1CCN2CCN(C[C@H]3CCC[C@H](C)[C@@H](C)S(=O)(=O)NC(=O)c4ccc5c(c4)N(C[C@@H]4CC[C@@H]34)C[C@@]3(CCCc4cc(Cl)ccc43)CO5)C[C@H]2C1` (single isomer, unassigned) [Example 4], the IC50 in experiment [1] (16 h) turned out to be 172 nM; in experiment [2] it was 0.212 nM. The corresponding values for `C[C@@H]1[C@@H](C)CCC[C@H](CN2CCN(C)CC2)[C@@H]2CC[C@H]2CN2C[C@@]3(CCCc4cc(Cl)ccc43)COc3ccc(cc32)C(=O)NS1(=O)=O` (single isomer, unassigned) [Example 5] are 173 nM and 0.622 nM. As for `C[C@@H]1[C@@H](C)CCC[C@H](CN2CCN3CCN(C)C[C@@H]3C2)[C@@H]2CC[C@H]2CN2C[C@@]3(CCCc4cc(Cl)ccc43)COc3ccc(cc32)C(=O)NS1(=O)=O` (single isomer, unassigned) [Example 6], the IC50 was determined as 177 nM in experiment [1] (16 h) and 0.353 nM in experiment [2]. Taken in the same sequence, the figures for `COCCN1CCN(C[C@H]2CCC[C@H](C)[C@@H](C)S(=O)(=O)NC(=O)c3ccc4c(c3)N(C[C@@H]3CC[C@@H]23)C[C@@]2(CCCc3cc(Cl)ccc32)CO4)CC1=O` (single isomer, unassigned) [Example 7] were 180 nM and 0.181 nM. The corresponding values for `C[C@@H]1[C@@H](C)CCC[C@@H](C(=O)N2CCOCC2)[C@@H]2CC[C@H]2CN2C[C@@]3(CCCc4cc(Cl)ccc43)COc3ccc(cc32)C(=O)NS1(=O)=O` (single isomer, unassigned) [Example 8] are 221 nM and 0.126 nM.

For the compound `C[C@@H]1[C@@H](C)CCC[C@H](C(=O)N2CCC2)[C@@H]2CC[C@H]2CN2C[C@@]3(CCCc4cc(Cl)ccc43)COc3ccc(cc32)C(=O)NS1(=O)=O` (single isomer, unassigned) [Example 9], the IC50 in experiment [1] (Homo sapiens, OPM-2, 16 h) turned out to be 223 nM; in experiment [2], 0.246 nM. As to `C[C@@H]1[C@@H](C)CCC[C@H](CN2CCN3CCOC[C@@H]3C2)[C@@H]2CC[C@H]2CN2C[C@@]3(CCCc4cc(Cl)ccc43)COc3ccc(cc32)C(=O)NS1(=O)=O` (single isomer, unassigned) [Example 10], the IC50 in experiment [1] (Homo sapiens, OPM-2, 16 h) is 227 nM; in experiment [2], 0.291 nM. As to `COCCNC(=O)[C@H]1CCC[C@H](C)[C@@H](C)S(=O)(=O)NC(=O)c2ccc3c(c2)N(C[C@@H]2CC[C@H]21)C[C@@]1(CCCc2cc(Cl)ccc21)CO3` (single isomer, unassigned) [Example 11], the IC50 in experiment [1] (Homo sapiens, OPM-2, 16 h) amounted to 242 nM; in experiment [2] it was 0.237 nM. Regarding `COCCN1CCN(C[C@H]2CCC[C@H](C)[C@@H](C)S(=O)(=O)NC(=O)c3ccc4c(c3)N(C[C@@H]3CC[C@@H]23)C[C@@]2(CCCc3cc(Cl)ccc32)CO4)CC1` (single isomer, unassigned) [Example 12], the IC50 was 254 nM in experiment [1] (16 h) and 0.542 nM in experiment [2].

In the case of `C[C@@H]1[C@@H](C)CCC[C@H](CN2CC(N(C)C)C2)[C@@H]2CC[C@H]2CN2C[C@@]3(CCCc4cc(Cl)ccc43)COc3ccc(cc32)C(=O)NS1(=O)=O` (single isomer, unassigned) [Example 13], the IC50 in experiment [1] (Homo sapiens, OPM-2, 16 h) is 258 nM; in experiment [2] it was 0.77 nM. As for `CC(=O)N1CCN2CCN(C[C@H]3CCC[C@H](C)[C@@H](C)S(=O)(=O)NC(=O)c4ccc5c(c4)N(C[C@@H]4CC[C@@H]34)C[C@@]3(CCCc4cc(Cl)ccc43)CO5)C[C@H]2C1` (single isomer, unassigned) [Example 15], the IC50 in experiment [1] (16 h) was 277 nM; in experiment [2] it was 0.185 nM. Taken in the same sequence, the figures for `C[C@@H]1[C@@H](C)CCC[C@H](CN2CC3(CCCN3C)C2)[C@@H]2CC[C@H]2CN2C[C@@]3(CCCc4cc(Cl)ccc43)COc3ccc(cc32)C(=O)NS1(=O)=O` (single isomer, unassigned) [Example 16] were 283 nM and 0.317 nM. Consider `C[C@@H]1[C@@H](C)CCC[C@H](CN2CC(C)(N(C)C)C2)[C@@H]2CC[C@H]2CN2C[C@@]3(CCCc4cc(Cl)ccc43)COc3ccc(cc32)C(=O)NS1(=O)=O` (single isomer, unassigned) [Example 17], for which the IC50 in experiment [1] (Homo sapiens, OPM-2, 16 h) was found to be 284 nM; in experiment [2], 0.881 nM. As to `C[C@@H]1[C@@H](C)CCC[C@H](CN2CCN3CCN(C)C[C@@H]3C2)[C@@H]2CC[C@H]2CN2C[C@@]3(CCCc4cc(Cl)ccc43)COc3ccc(cc32)C(=O)NS1(=O)=O` (single isomer, unassigned) [Example 19], the results for the IC50 in experiment [1] (16 h) and in experiment [2] were 303 nM and 0.532 nM, respectively.

Turning to `CC(=O)N1CCN(C[C@H]2CCC[C@H](C)[C@@H](C)S(=O)(=O)NC(=O)c3ccc4c(c3)N(C[C@@H]3CC[C@@H]23)C[C@@]2(CCCc3cc(Cl)ccc32)CO4)CC1` (single isomer, unassigned) [Example 22], the IC50 amounted to 305 nM in experiment [1] (Homo sapiens, OPM-2, 16 h) and 0.375 nM in experiment [2]. For the compound `C[C@@H]1[C@@H](C)CCC[C@H](CO)[C@@H]2CC[C@H]2CN2C[C@@]3(CCCc4cc(Cl)ccc43)COc3ccc(cc32)C(=O)NS1(=O)=O` (single isomer, unassigned) [Example 23], the IC50 came out at 305 nM in experiment [1] (16 h) and 0.182 nM in experiment [2]. Regarding `C[C@@H]1[C@@H](C)C/C=C/[C@H](CO)[C@@H]2CC[C@H]2CN2C[C@@]3(CCCc4cc(Cl)ccc43)COc3ccc(cc32)C(=O)NS1(=O)=O` (single isomer, unassigned) [Example 24], the IC50 was 322 nM in experiment [1] (16 h) and 0.224 nM in experiment [2].

With `C[C@@H]1[C@@H](C)C/C=C/[C@H](CO)[C@@H]2CC[C@H]2CN2C[C@@]3(CCCc4cc(Cl)ccc43)COc3ccc(cc32)C(=O)NS1(=O)=O` (single isomer, unassigned) [Example 26], the figures for the IC50 in experiment [1] (16 h) and in experiment [2] were 342 nM and 0.336 nM, respectively. Taken in the same sequence, the figures for `COCC[C@@H]1[C@@H](C)CCC[C@H](CO)[C@@H]2CC[C@H]2CN2C[C@@]3(CCCc4cc(Cl)ccc43)COc3ccc(cc32)C(=O)NS1(=O)=O` (single isomer, unassigned) [Example 29] were 366 nM and 0.226 nM.

In the case of `C[C@@H]1[C@@H](C)CCC[C@H](CN2CCN3CCOC[C@H]3C2)[C@@H]2CC[C@H]2CN2C[C@@]3(CCCc4cc(Cl)ccc43)COc3ccc(cc32)C(=O)NS1(=O)=O` (single isomer, unassigned) [Example 31], the values for the concentration for half-maximal inhibition (IC50) in experiment [1] (16 h) and in experiment [2] were 376 nM and 0.261 nM, respectively. For `C[C@@H]1[C@@H](C)CCC[C@H](CN2CCN(C)CC2)[C@@H]2CC[C@H]2CN2C[C@@]3(CCCc4cc(Cl)ccc43)COc3ccc(cc32)C(=O)NS1(=O)=O` (single isomer, unassigned) [Example 34], the IC50 amounted to 417 nM in experiment [1] (16 h) and 0.602 nM in experiment [2].

As to `CC(=O)N1CCN2CCN(C[C@H]3CCC[C@H](C)[C@@H](C)S(=O)(=O)NC(=O)c4ccc5c(c4)N(C[C@@H]4CC[C@@H]34)C[C@@]3(CCCc4cc(Cl)ccc43)CO5)C[C@H]2C1` (single isomer, unassigned) [Example 35], the IC50 in experiment [1] (16 h) was determined as 421 nM; in experiment [2], 0.05 nM.

Take `C[C@@H]1[C@@H](C)CCC[C@H](CN2CCN3CCN(C(=O)OC(C)(C)C)C[C@@H]3C2)[C@@H]2CC[C@H]2CN2C[C@@]3(CCCc4cc(Cl)ccc43)COc3ccc(cc32)C(=O)NS1(=O)=O` (stereo in doubt) [Example 64]: the 50% inhibitory concentration (IC50) in experiment [1] (Homo sapiens, OPM-2, 16 h) was 1500 nM. Consider `C[C@@H]1[C@@H](C)CCC[C@@H](CC(=O)N2CCN3CCOC[C@H]3C2)[C@@H]2CC[C@H]2CN2C[C@@]3(CCCc4cc(Cl)ccc43)COc3ccc(cc32)C(=O)NS1(=O)=O` [Example 2, (1s,3′r,6′s,7′s,11′s,12′r)-6-chloro-7′-(2-((9ar)-hexahydropyrazino[2,1-c][1,4]oxazin-8(1h)-yl)-2-oxoethyl)-11′,12′-dimethyl-3,4-dihydro-2h,15′h-spiro[naphthalene-1,22′-[20]oxa[13]thia[1,14]diazatetracyclo[14.7.2.0˜3,6˜0.0˜19,24˜]pentacosa[16,18,24]trien]-15′-one 13′,13′-dioxide trifluoroacetic acid], for which, in experiment [1] (Homo sapiens, OPM-2, 16 h), the IC50 was determined as 134 nM.

For the origin of these results see patent publication US11279712B2, “Macrocyclic compounds that inhibit MCL-1 protein” (AMGEN INC., priority 2017, dated 2022).
